Data as given in the METLIN SMRT retention time set (Domingo-Almenara et al. 2019).

Experiment: gradient 5% acetonitrile 3 min, to 50% in 2 min, to 85% in 15 min, held 3 min, 100 µL/min
Details: column: Zorbax Extend-C18 2.1 x 50 mm; eluents: water / acetonitrile, 0.1% formic acid
In short: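 Retention time was recorded from adduct peaks, which were picked computationally and each inspected manually. Pure standards ran in mixtures of ~100 molecules on HPLC coupled to a quadrupole time-of-flight mass spectrometer, in positive and negative ionization mode, through a Zorbax Extend-C18 column (2.1 × 50 mm, 1.8 μm) at 100 μL/min. Eluents were water and acetonitrile, each with 0.1% formic acid.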

| Structure (SMILES) | RP-LC retention time [s] |
| --- | --- |
| CSc1ccc(CCNC(=O)CCC(=O)N2CCCn3nc(C)cc32)cc1 | 703 |
| Cc1oc(C2CCN(C(=O)c3cc4ccccc4[nH]3)CC2)nc1C(=O)N1CCSCC1 | 847 |
| Cc1nn(C)c(C)c1S(=O)(=O)N1CC=C(c2cn(C)c3ncccc23)CC1 | 754 |
| CC(C)c1cc(C(=O)NCc2ccco2)nc2cc(-c3ccccn3)nn12 | 629 |
| O=C(Nc1ccc2c(c1)CCN2S(=O)(=O)c1ccccc1)Nc1ccccc1Cl | 1030 |
| COC(=O)c1ccc2nc(NC(=O)c3cc(C)oc3C)sc2c1 | 947 |
| CCOC(=O)c1sc(NC(=O)CSc2nc3ccccc3[nH]2)nc1C | 810 |
| Cc1ccc(-c2cn3ccccc3n2)cc1NS(=O)(=O)c1ccccc1 | 630 |
| CC1=C(c2ccc(C)c(C)c2)S(=O)(=O)N=C1N1CCCN(C(=O)c2ccco2)CC1 | 836 |
| Cn1cc2c(N3CCSCC3)nc(C(=O)N3CCN(C4CCCC4)CC3)nc2n1 | 579 |
| CCCn1cc(C2=CCN(S(=O)(=O)c3ccc(OC)c(Cl)c3)CC2)c2cccnc21 | 921 |
| CCCn1cc(C(=O)NCc2cccnc2)c2cccnc21 | 580 |
| CC(=O)N1CCc2ccccc2C1C(=O)NC(C)C (stereo not given) | 672 |
| Cc1nc(CCNS(=O)(=O)c2cccnc2)no1 | 603 |
| O=C(Cn1ccn2nc(-c3ccc(F)cc3)c(CO)c2c1=O)NC1CCCC1 | 770 |
| CC(C)c1noc(-c2ccnc(-n3cnc(C(=O)NC(C)c4ccccc4)c3)c2)n1 (stereo not given) | 1000 |
| c1ccc([C@@H]2NCCO[C@H]2COc2ccccn2)cc1 | 595 |
| CCOC(=O)C1CCCN(C(=O)C2c3cc(OC)c(OC)cc3C(=O)N(C)C2c2cccs2)C1 (stereo not given) | 787 |
| CCCCN1CCN(C(=O)c2nc(N3CCSCC3)c3c(C)cc(C)nc3n2)CC1 | 581 |
| O=S(=O)(c1ccc2c(c1)CCCC2)N1CCCC1c1nc(-c2cccc(F)c2)no1 (stereo not given) | 1330 |
| O=C(Nc1ccc(N2CCOCC2)cc1)C1CCCN(c2ncc(-c3ccccc3)cn2)C1 (stereo not given) | 925 |
| CC(C)CN1CCN(S(=O)(=O)c2cc(-c3nnc(C4CC4)o3)co2)CC1 | 622 |
| CCc1noc2nc(CCC(=O)NCCOC)nc(N3CCCCC3)c12 | 724 |

| Structure (SMILES) | RP-LC retention time [s] |
| --- | --- |
| Cc1ccn(-c2ccc(Nc3ccc(NC(=O)c4ccccc4C(F)(F)F)cc3)nn2)n1 | 809 |
| COc1ccc(Cc2nnc(C3CCN(C(=O)c4ccco4)CC3)s2)cc1 | 703 |
| CC1CC=C(O)C12OCC(C)(C)CO2 (stereo not given) | 736 |
| COCCc1noc(-c2nc(-c3ccc(OC)cc3)no2)n1 | 976 |
| CCCN1C(=O)Cc2ccccc2C1C(=O)NCc1ccc(Br)cc1 (stereo not given) | 857 |
| Cc1ccc(N2CCN(Cc3nc4nc(C)cc(N5CCOCC5)n4n3)CC2)cc1 | 636 |
| CC(C)CCNC(=O)N1C[C@@H]2CCCN3CCC[C@@H]([C@H]23)[C@H]1CCCC(=O)NCC1CC1 | 625 |
| COc1ccc(CC(=O)N2CCC3(CC2)NC(=O)c2cc(C)ccc2N3C)cc1 | 769 |
| CCOC(=O)N1CCN(c2nc(Nc3ccc(OC)cc3)c3nccnc3n2)CC1 | 670 |
| Cc1ccnc(N2CCCC(C(=O)N3CCN(C)CC3)C2)n1 (stereo not given) | 538 |
| CCOC(=O)N1CCN(C(=O)Cc2csc(NC(=O)c3cnccn3)n2)CC1 | 598 |
| O=C(NC1CCCC1)N1CCN(Cc2nc3cc(-c4ccccc4)ccc3o2)CC1 | 787 |
| CCOc1ccc(C(C)NC(=O)c2c(C)sc3ccn(CC)c(=O)c23)cc1 (stereo not given) | 872 |
| Cc1ccc(NC(=O)c2cnc3c(c2)c(=O)n(C)c(=O)n3-c2ccccc2)c(F)c1 | 887 |
| CCCN(CCC)c1nc(-c2ccccc2F)nc2ccccc12 | 814 |
| CN1C(=O)c2cccnc2Sc2cc(NC(=O)C(C)(C)C)ccc21 | 735 |
| CC(C)Cn1cc(S(=O)(=O)N2CCN(c3ccccc3F)CC2)c2cccnc21 | 1140 |
| CCc1nnc(NC(=O)CSc2nc3c(c(=O)n2CCOC)SC(C)C3)s1 (stereo not given) | 664 |
| Cc1ccc(-n2nc3c(N4CCCC(C(=O)NCc5ccccc5Cl)C4)nnc(C)c3c2C)cc1 (stereo not given) | 804 |
| CCc1ccc(NC(=O)N2CCC(N3CCN(Cc4ccccc4)C(=O)C3=O)CC2)cc1 | 789 |
| Cc1ccc(NC(=O)NCCc2cn(CC(C)C)c3ncccc23)cc1C | 858 |
| O=C(Nc1nc(-c2ccc(Cl)cc2)cs1)c1cccc(-n2cnnc2)n1 | 865 |
| CCOC(=O)c1c(S(=O)(=O)N2CCC(C(=O)NC3CCCCCCC3)CC2)c(C)n(C)c1C | 932 |

| Structure (SMILES) | RP-LC retention time [s] |
| --- | --- |
| CCOC(=O)c1cccc(NC(=O)CCc2c(-c3ccccc3)nc3ccccn23)c1 | 984 |
| CCC(=O)N1CCC2(CC1)CC1C(=O)N(CC)C(=O)N1C2 (stereo not given) | 626 |
| Cc1nnc(-c2ccc3ccn(CC(=O)NCCC(C)C)c3c2)o1 | 754 |
| COC(=O)c1ccc(OC)c(Cn2cnc3c(-c4ccc(C)cc4)csc3c2=O)c1 | 1070 |
| Cc1cc(C(=O)N2CCC(c3nc4ccccc4s3)CC2)no1 | 763 |
| CCOC(=O)Cc1ccc(NC(=O)NC2CCN(c3ccccc3)C2=O)cc1 (stereo not given) | 742 |
| CCc1noc(NC(C)=O)c1-c1ccc(C)c(S(=O)(=O)NC(C)C)c1 | 738 |
| CC(=O)c1cccc(NC(=O)Cn2cccc2-c2nc(-c3ccc4c(c3)OCO4)no2)c1 | 951 |
| COc1ccc(-c2cn3c(CC(=O)Nc4ccc5c(c4)OCCO5)csc3n2)cc1OC | 684 |
| CSc1cccc(NC(=O)N2CCC(CC(=O)N3CCCCC3)CC2)c1 | 789 |
| O=C(c1ccc(Cl)s1)N1CCCCC1c1nncn1CC1CC1 (stereo not given) | 800 |
| CC(C)C(=O)Nc1ccc2c(c1)Sc1ncccc1C(=O)N2C(C)C | 764 |
| COc1ccccc1NC(=O)N1CCc2cn(C)c3cccc(c23)C1 | 944 |
| Cc1oc(-c2ccc(C(=O)NCCN(C)C)cc2)nc1CSc1ccccc1 | 696 |
| Cc1nnc(N2CCC(C(=O)N3CCOCC3)CC2)c2nn(-c3ccccc3)c(C)c12 | 620 |
| CC(C)(C)CC(=O)N1CC(c2nc(-c3ccccc3)no2)C2(CCOCC2)C1 (stereo not given) | 904 |
| C=CCNC(=O)C1CCCN(S(=O)(=O)c2ccc(OC)c(OC)c2)C1 (stereo not given) | 700 |
| Cc1ccccc1CN1C(=O)CN(S(=O)(=O)c2ccccc2)CC1(C)C(=O)NC1CCCCC1 (stereo not given) | 1020 |
| COc1ccc(CCC(=O)Nc2cnn(-c3ncc(N4CCCC4)cn3)c2)cc1 | 822 |
| COC(=O)c1c(C)[nH]c(C(=O)N2CCC(CC(=O)N(C)Cc3ccco3)CC2)c1C | 728 |
| CC1(C)C(=O)Nc2ccc(S(=O)(=O)N3CCC(c4noc(C5CC5)n4)C3)cc21 (stereo not given) | 747 |
| O=C(Nc1ccc(F)cc1)N1CCCC(Cn2c(C3CC3)nc3cccnc32)C1 (stereo not given) | 675 |
| CN1CCN(C(CNC(=O)c2ccc3nsnc3c2)c2ccc(F)cc2)CC1 (stereo not given) | 567 |

| Structure (SMILES) | RP-LC retention time [s] |
| --- | --- |
| CCOC(=O)c1nnc2c(-c3ccc(F)cc3)c(C)nn2c1C | 986 |
| O=C(Nc1ccc2nncn2c1)Nc1cc(F)ccc1F | 726 |
| O=C(c1cc(-c2ccco2)[nH]n1)N1CCN(c2ccccn2)CC1 | 583 |
| CCNC(=O)c1cc(C)nc2ccc(C)cc12 | 568 |
| Cc1nc2cccnc2n1C1CCN(C(=O)Nc2ccc3c(c2)OCCO3)CC1 | 612 |
| COc1ccc(-c2ncc3c(n2)CCN(C(=O)c2cccc(Cl)c2)C3)cc1 | 975 |
| CCC(NC(=O)C1CCN(c2cncnc2N2CCOCC2)CC1)c1ccc(OC)cc1 (stereo not given) | 643 |
| CNC(=O)N1CCCC(c2cccc(C(=O)NC3CCCCCC3)c2)C1 (stereo not given) | 820 |
| CCCn1ccc2sc(C)c(C(=O)NCC(C)C)c2c1=O | 800 |
| CCOC(=O)c1ccc(Nc2c(-c3ccc(C(=O)OC)cc3)nc3cnccn23)cc1 | 856 |
| Cc1nn2c(CNS(=O)(=O)c3c(C)noc3C)c(C)nc2s1 | 640 |
| CCC(=O)N1c2ccc(S(=O)(=O)CCC(=O)NCc3ccc(N(C)C)cc3)cc2CC1C (stereo not given) | 617 |
| CCn1cc(C)c(C(=O)O)c1CC(=O)Nc1cc(C)cc(C)c1 | 907 |
| O=C(Cc1ccccc1Cl)N1CCN(c2ccc3nncn3n2)CC1 | 628 |
| COc1cccc(C(=O)NCC(C)(O)C2CC2)c1OC (stereo not given) | 669 |
| CC(C)c1cnn2c(NCc3ccccc3)cc(NCCCCCCN)nc12 | 653 |
| O=C(Nc1cnc(-c2ccc(Cl)cc2)nc1)c1cncc(Br)c1 | 1070 |
| COCCCn1c(C)c(C)c(S(=O)(=O)c2ccccc2)c1NC(=O)C1CCCO1 (stereo not given) | 824 |
| O=C(Cn1nc2n(c1=O)CCCC2)NCc1ccccc1 | 640 |
| Cc1cccc(-c2cc3n(n2)CCCN(C(=O)C2CCOC2)C3)c1 (stereo not given) | 735 |
| Cc1ccc(C)c(N2CCN(c3ccnc(SCC(=O)Nc4c(C)cccc4Cl)n3)CC2)c1 | 942 |
